Read-outs that look alike come from different tables or passages of the source.
Columns and labels:
[1] = system: GLC4/ADR cells; test: Steady-state cellular [3H]daunorubicin accumulation in GLC4/ADR cells; type: cell-based, human; settings: for Effect on accumulation of DNR in GLC4/ADR cells: 50 µM (μM); for Accumulation of daunorubicin, mean percentages of control (set at 100%): (iso)flavonoid 50 µM (μM), 0.5 M DNR, 75 min
[2] = system: GLC4 cells; test: Steady-state cellular [3H]daunorubicin accumulation in GLC4 cells; type: cell-based, human; settings: for Accumulation of daunorubicin, mean percentages of control (set at 100%): GLC4, (iso)flavonoid 50 µM (μM), 0.5 M DNR, 75 min; for Effect on accumulation of DNR in GLC4 cells: 50 µM (μM)
[3] = biological target: T1, MRP1 ATPase activity (Homo sapiens, UniProt P33527); test: ATPase activity of GLC4/ADR plasma membranes (colourimetric inorganic phosphate); type: biochemical; settings: for Induction of ATPase activity of GLC4/ADR membranes in the concentration range tested: glycosylated (iso)flavonoids, Figure 4
T1 construct: plasma membrane vesicles prepared from the MRP1 overexpressing cell line GLC4/ADR; endogenous in cells; host or cells: GLC4/ADR (adriamycin-selected human small-cell lung cancer subline); plasma membrane vesicles
T1 sequence (P33527 whole entry): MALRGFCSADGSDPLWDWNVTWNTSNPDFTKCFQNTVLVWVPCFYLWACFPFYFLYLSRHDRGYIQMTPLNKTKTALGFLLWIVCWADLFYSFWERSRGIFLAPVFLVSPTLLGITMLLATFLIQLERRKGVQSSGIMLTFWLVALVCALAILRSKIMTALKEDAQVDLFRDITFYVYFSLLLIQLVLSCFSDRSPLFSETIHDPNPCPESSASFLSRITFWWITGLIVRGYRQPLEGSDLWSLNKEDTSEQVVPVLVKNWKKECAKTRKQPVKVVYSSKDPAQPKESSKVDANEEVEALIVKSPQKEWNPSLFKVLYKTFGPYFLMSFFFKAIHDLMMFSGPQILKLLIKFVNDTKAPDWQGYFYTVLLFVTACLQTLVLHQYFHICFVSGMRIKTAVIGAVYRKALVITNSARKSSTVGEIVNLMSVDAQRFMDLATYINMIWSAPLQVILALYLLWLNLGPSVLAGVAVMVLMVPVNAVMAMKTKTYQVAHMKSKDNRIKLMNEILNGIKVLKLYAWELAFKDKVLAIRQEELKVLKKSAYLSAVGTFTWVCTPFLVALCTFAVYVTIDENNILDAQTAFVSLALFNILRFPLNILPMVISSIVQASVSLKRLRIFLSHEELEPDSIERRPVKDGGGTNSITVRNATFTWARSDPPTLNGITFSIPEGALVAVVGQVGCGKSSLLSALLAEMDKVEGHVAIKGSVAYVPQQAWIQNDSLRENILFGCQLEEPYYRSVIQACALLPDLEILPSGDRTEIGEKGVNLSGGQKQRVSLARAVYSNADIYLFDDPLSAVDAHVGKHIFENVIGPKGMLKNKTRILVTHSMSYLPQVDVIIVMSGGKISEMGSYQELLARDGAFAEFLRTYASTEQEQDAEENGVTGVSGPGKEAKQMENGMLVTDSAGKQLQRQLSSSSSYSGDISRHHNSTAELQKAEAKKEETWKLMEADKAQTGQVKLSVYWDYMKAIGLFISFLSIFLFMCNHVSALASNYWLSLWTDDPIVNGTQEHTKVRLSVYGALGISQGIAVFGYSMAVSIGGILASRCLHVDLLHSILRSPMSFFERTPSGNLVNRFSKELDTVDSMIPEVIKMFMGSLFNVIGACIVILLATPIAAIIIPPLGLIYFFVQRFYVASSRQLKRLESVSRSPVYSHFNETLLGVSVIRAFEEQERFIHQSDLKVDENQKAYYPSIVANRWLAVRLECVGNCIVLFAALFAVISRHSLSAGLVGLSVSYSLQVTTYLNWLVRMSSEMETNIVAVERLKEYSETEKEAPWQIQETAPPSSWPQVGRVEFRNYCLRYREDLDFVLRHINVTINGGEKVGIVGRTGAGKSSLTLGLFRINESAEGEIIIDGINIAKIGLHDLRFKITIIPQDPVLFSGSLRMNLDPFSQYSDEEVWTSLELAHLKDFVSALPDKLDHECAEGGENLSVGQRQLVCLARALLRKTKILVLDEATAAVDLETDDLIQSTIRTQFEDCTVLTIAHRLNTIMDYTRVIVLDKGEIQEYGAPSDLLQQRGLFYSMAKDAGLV
From the text: One form of cellular resistance, directed against a wide spectrum of natural agents, is referred to as multidrug resistance (MDR). […] The ATP-dependent transport of anticancer drugs out of tumour cells that express MDR proteins may at least theoretically lead to impaired treatment outcome of patients. […] 1-Chloro-2,4-dinitrobenzene (CDNB) was from Sigma (St Louis, MO, USA). […] The isoflavonoid genis- tein was from ICN Biomedicals (Zoetermeer, The Netherlands). […] The (iso)flavonoids were dissolved as a stock solution of 40 mM in dimethyl sulphoxide (DMSO; Across Chimica, Belgium) and stored at -20C. Before experiments, 1:1 dilutions were made in ethanol, followed by a dilution in ethanol/water (1: 3; v/v) to the appropriate concentrations. The maximal concentration of DMSO and ethanol, which was also added to the controls, was 0.5% (v/v). Membrane filters OE67 were from Schleicher and Schuell (Dassel, Germany). Doxorubicin hydrochloride was from Laboratoire Roger Bellon (France). […] S1(MRP1) cells were cultured in the presence of G418 until 2-10 days before experiments. […] Cells were harvested by centrifugation (275 g, 5 min) and washed twice in phosphate-buffered saline. Subsequently, the cells were incubated in 100 mM potassium chloride (KCl), 5 mM magnesium chloride (MgCl2 ), 1 mM phenylmethylsulphonyl fluoride and 50 mM HEPES-KOH (pH 7.4) for 1 h at 0C, in order to allow the cells to swell. Then the cells were ultrasonicated at 20% of the maximum power of an MSE sonicator (Soniprep 150) for three bursts of 15 s. The suspension was centrifuged at 1500 g for 10 min. […] After centrifugation at 100 000 g for 60 min the interface was removed and washed in 100 mM KC1-50 mM HEPES-5 mM MgCl2 buffer (pH 7.4). The final membrane preparations were stored at -80C at a protein concentration of ~ 4 mg ml-1 . […] Vesicles were incubated in KCl-HEPES buffer (pH 7.4) at 37C (protein concentration ~ 0.25 mg ml-1 ), in the presence of 10 mM MgCl2 with or without 1 mM ATP and tritium-labelled DNP-SG. The reaction was stopped by adding ice-cold KCl-HEPES buffer. After rapid filtration, the filters were washed twice with KCl-HEPES buffer. The radioactivity on the filters was measured by liquid scintillation counting. […] Plasma membranes were incubated for 1 h in KCl-HEPES buffer (pH 7.4) at 37C, in the presence of 1 mM EGTA, 1 mM sodium azide and 0.1 mM ouabain, with or without 1 mM ATP. […] Plasma membranes from GLC4 cells (black bars) and GLC4 /ADR cells (white bars) were incubated with 10 nM DNP-SG in the absence or presence of the MIB6 antibody (MIB6) (10 g ml-1 ) or an MRP1 control antibody (10 g ml-1 ). […] In short, anti-MRP1 antibodies were tested for their capacity to inhibit DNP-SG transport into GLC4 /ADR inside-out plasma membrane vesicles.

[4] = biological target: T2, MRP1 (Homo sapiens, UniProt P33527); test: ATP-dependent uptake of DNP-SG into GLC4/ADR plasma membrane vesicles; type: biochemical; settings: using 100 nM DNP-SG
T2 construct: using MRP1-transfected cells and several couples of MRP1 overexpressing cell lines and their parental cell lines; endogenous in cells; host or cells: GLC4, GLC4/ADR, HL60, HL60/ADR and SW1573 (endogenous)
T2 sequence (P33527 whole entry): as above
From the text: One form of cellular resistance, directed against a wide spectrum of natural agents, is referred to as multidrug resistance (MDR). […] The ATP-dependent transport of anticancer drugs out of tumour cells that express MDR proteins may at least theoretically lead to impaired treatment outcome of patients. […] 1-Chloro-2,4-dinitrobenzene (CDNB) was from Sigma (St Louis, MO, USA). […] The isoflavonoid genis- tein was from ICN Biomedicals (Zoetermeer, The Netherlands). […] The (iso)flavonoids were dissolved as a stock solution of 40 mM in dimethyl sulphoxide (DMSO; Across Chimica, Belgium) and stored at -20C. Before experiments, 1:1 dilutions were made in ethanol, followed by a dilution in ethanol/water (1: 3; v/v) to the appropriate concentrations. The maximal concentration of DMSO and ethanol, which was also added to the controls, was 0.5% (v/v). Membrane filters OE67 were from Schleicher and Schuell (Dassel, Germany). Doxorubicin hydrochloride was from Laboratoire Roger Bellon (France). […] S1(MRP1) cells were cultured in the presence of G418 until 2-10 days before experiments. […] Cells were harvested by centrifugation (275 g, 5 min) and washed twice in phosphate-buffered saline. […] The radioactivity on the filters was measured by liquid scintillation counting. […]

[5] = system: GLC4; test: Growth inhibition assay, GLC4; type: cell-based, human; settings: for IC50: Homo sapiens, read-out: IC50 value
[6] = system: SW1573; test: Growth inhibition assay, SW1573; type: cell-based; settings: Homo sapiens, read-out: IC50 value
[7] = system: S1(1.1); test: Growth inhibition assay, S1(1.1); type: cell-based; settings: Homo sapiens, 72 h, read-out: IC50 value
[8] = system: S1(MRP); test: Growth inhibition assay, S1(MRP); type: cell-based, human; settings: Homo sapiens, 72 h; S1(MRP); 3 days drug exposure; read-out: IC50 value
[9] = system: GLC4/ADR; test: Growth inhibition assay, GLC4/ADR; type: cell-based, human; settings: for Resistance of MRP1 overexpressing cells: 72-h exposures; for IC50: Homo sapiens, GLC-4/ADR, 72 h, read-out: IC50 value

O=c1cc(-c2ccc(O)cc2)oc2cc(O)cc(O)c12 [Apigenin, apigenin]
Effect on accumulation of DNR in GLC4/ADR cells [1]: increased the accumulation of DNR
Accumulation of daunorubicin, mean percentages of control (set at 100%) [2]: 91%

O=c1cc(-c2ccc(O)cc2)oc2cc(O[C@@H]3O[C@H](CO)[C@@H](O)[C@H](O)[C@H]3O)cc(O)c12 [Apigetrin, apigenin-7-glucose]
Effect on accumulation of DNR in GLC4/ADR cells [1]: did not increase accumulation of DNR
Accumulation of daunorubicin, mean percentages of control (set at 100%) ([1]; GLC4/ADR): 57%
Effect on accumulation of DNR in GLC4 cells [2]: small, but significant decrease
Induction of ATPase activity of GLC4/ADR membranes in the concentration range tested [3]: did not induce ATPase activity

N[C@@H](CCC(=O)N[C@@H](CSc1ccc([N+](=O)[O-])cc1[N+](=O)[O-])C(=O)NCC(=O)O)C(=O)O [DNP-SG, dinitrophenyl-S-glutathione]
ATP-dependent uptake of DNP-SG into GLC4/ADR vesicles [4]: 490 pmol mg protein-1 min-1
Stimulation of basal ATPase activity of GLC4/ADR membranes above the control ([3]; 10 M DNP-SG (μM)): 4.5 nmol mg protein-1 min-1
ATPase activity stimulation compared to the control ([3]; 10 M DNP-SG (μM), without MIB6): 125%

O=c1c(-c2ccc(O)cc2)coc2cc(O)cc(O)c12 [Genistein, genistein]
IC50 ([5]; 72 h, GLC4, 3 days drug exposure): 12 µM
IC50 ([6]; 72 h, SW1573, 3 days drug exposure): 10 µM
Effect on accumulation of DNR in GLC4/ADR cells [1]: increased the accumulation of DNR
Difference of DNR accumulation from control (P < 0.05) ([1]; GLC4/ADR, 10 M genistein (μM), Figure 6): gave a significant difference
Modulation of cellular accumulation of DNR at low micromolar concentrations ([1]; GLC4/ADR, Figure 6): did not modulate
IC50 ([7]; S1(1.1), 3 days drug exposure): 9 µM
Accumulation of daunorubicin, mean percentages of control (set at 100%) [2]: 107%
IC50 [8]: 9 µM
Resistance of MRP1 overexpressing cells [9]: No resistance
IC50 ([9]; GLC4/ADR, 3 days drug exposure): 13 µM
ATPase stimulation, % of the control ([3]; 50 µM genistein (μM), without MIB6): 108%
Concentrations at which ATPase activity of GLC4/ADR membranes was significantly induced ([3]; GLC4/ADR membranes, lowest effective concentration and higher): ≥ 1 µM

O=c1c(-c2ccc(O)cc2)coc2cc(O[C@@H]3O[C@H](CO)[C@@H](O)[C@H](O)[C@H]3O)cc(O)c12 [Genistin, genistein-7-glucose]
Effect on accumulation of DNR in GLC4/ADR cells [1]: did not increase accumulation of DNR
Accumulation of daunorubicin, mean percentages of control (set at 100%) ([1]; GLC4/ADR): 96%
Accumulation of daunorubicin, mean percentages of control (set at 100%) [2]: 101%
Induction of ATPase activity of GLC4/ADR membranes in the concentration range tested [3]: did not induce ATPase activity

O=c1c(O)c(-c2ccc(O)cc2)oc2cc(O)cc(O)c12 [Kaempferol, kaempferol]
IC50 ([5]; GLC4, 72 h): 25 µM
IC50 ([6]; SW1573, 72 h): 29 µM
Effect on accumulation of DNR in GLC4/ADR cells [1]: increased the accumulation of DNR
Accumulation of daunorubicin, mean percentages of control (set at 100%) ([1]; GLC4/ADR): 190%
IC50 [7]: 43 µM
Accumulation of daunorubicin, mean percentages of control (set at 100%) [2]: 92%
Resistance of MRP1 overexpressing cells [9]: No resistance
IC50 [9]: 11 µM

O=c1c(O[C@@H]2O[C@H](CO)[C@@H](O)[C@H](O)[C@H]2O)c(-c2ccc(O)cc2)oc2cc(O)cc(O)c12 [Kaempferol-3 glucose, kaempferol-3-glucose]
Effect on accumulation of DNR in GLC4/ADR cells [1]: did not increase accumulation of DNR
Effect on accumulation of DNR in GLC4 cells [2]: small, but significant decrease

CCCN(CCC)S(=O)(=O)c1ccc(C(=O)O)cc1 [probenecid]
Effect of simultaneous incubation with probenecid on the cytotoxic effect of flavopiridol ([5]; GLC4, probenecid 0.5 mM, data not shown): did not alter
Effect of simultaneous incubation with probenecid on the cytotoxic effect of flavopiridol ([9]; GLC4/ADR, probenecid 0.5 mM, data not shown): did not alter

Reference: PMC2362861, “Potent interaction of flavopiridol with MRP1” (British Journal of Cancer, 1999)
